In patent publication US9957264B2 (Merck Sharp & Dohme Corp., priority 2013, dated 2018):

What was measured:
[1] = target: JAK1 (recombinant purified GST-tagged catalytic domain) (Homo sapiens (Human), UniProt P23458); assay: Jak Biochemical HTRF Assay (JAK1); conditions: [ATP] 31.8 μM
Method in brief: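 Under a 120 min room-temperature, ATP-initiated reaction, peptide phosphorylation was detected by Eu-pY20/streptavidin-Dylight 650 HTRF after EDTA stop. IC50 values derive from percent inhibition curves.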

[2] = target: JAK2 (recombinant purified GST-tagged catalytic domain) (Homo sapiens (Human), UniProt O60674); assay: Jak Biochemical HTRF Assay (JAK2); conditions: [ATP] 8.5 μM
JAK2 (recombinant purified GST-tagged catalytic domain), sequence (O60674 849-1124): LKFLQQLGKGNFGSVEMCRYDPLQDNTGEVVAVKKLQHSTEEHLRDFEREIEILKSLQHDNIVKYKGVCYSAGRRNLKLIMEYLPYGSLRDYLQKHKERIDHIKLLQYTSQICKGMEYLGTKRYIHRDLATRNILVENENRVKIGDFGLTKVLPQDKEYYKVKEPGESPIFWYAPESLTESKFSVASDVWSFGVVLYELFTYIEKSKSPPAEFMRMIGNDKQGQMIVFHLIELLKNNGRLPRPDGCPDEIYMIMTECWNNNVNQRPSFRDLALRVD

JAK1 (recombinant purified GST-tagged catalytic domain), sequence (P23458 875-1153): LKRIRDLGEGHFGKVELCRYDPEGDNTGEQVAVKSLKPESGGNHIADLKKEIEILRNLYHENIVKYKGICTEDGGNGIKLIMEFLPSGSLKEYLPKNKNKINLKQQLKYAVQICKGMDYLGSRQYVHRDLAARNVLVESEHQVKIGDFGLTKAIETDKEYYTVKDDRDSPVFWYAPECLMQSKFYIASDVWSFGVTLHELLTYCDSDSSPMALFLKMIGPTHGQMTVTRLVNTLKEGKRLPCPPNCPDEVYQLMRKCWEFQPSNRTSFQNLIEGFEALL

IC50 [1] [nM] | IC50 [2] [nM] | SMILES
0.19 | 0.29 | CN(C)S(=O)(=O)c1ccc(Nc2nn(C3(CC#N)CCN(Cc4c(F)cccc4F)CC3)c3cc[nH]c(=O)c23)cc1 [Example 8-10, 4-({1-[4-(cyanomethyl)-1-(2,6-difluorobenzyl)piperidin-4-yl]-4-oxo-4,5-dihydro-1H-pyrazolo[4,3-c]pyridin-3-yl}amino)-N,N-dimethylbenzenesulfonamide]
0.12 | 0.61 | CC(C)(C)OC(=O)N1CCC(CC#N)(n2nc(Nc3ccc4c(c3)CCC4=O)c3c(=O)[nH]ccc32)CC1 [Example 5-12, tert-butyl 4-(cyanomethyl)-4-(4-oxo-3-((1-oxo-2,3-dihydro-1H-inden-5-yl)amino)-4,5-dihydro-1H-pyrazolo[4,3-c]pyridin-1-yl)piperidine-1-carboxylate]
16.8 | 172 | N#CC[C@]1(n2nc(Nc3ccc4nccc(F)c4c3)c3c(=O)[nH]ccc32)CCOC1 (single isomer, unassigned) [Example 5-246, [(3S or 3R)-3-{3-[(4-fluoroquinolin-6-yl)amino]-4-oxo-4,5-dihydro-1H-pyrazolo[4,3-c]pyridin-1-yl}tetrahydrofuran-3-yl]acetonitrile]
0.33 | 0.49 | CC(C)(C)OC(=O)N1CCC(CC#N)(n2nc(Nc3ccc(C4(C(F)(F)F)CCNC4)cc3)c3c(=O)[nH]ccc32)CC1 (single isomer, unassigned) [Example 5-282, (S or R) tert-butyl 4-(cyanomethyl)-4-(4-oxo-3-((4-(3-(trifluoromethyl)pyrrolidin-3-yl)phenyl)amino)-4,5-dihydro-1H-pyrazolo[4,3-c]pyridin-1-yl)piperidine-1-carboxylate]
0.08 | 0.08 | CC(C)(C)OC(=O)N1CC[C@](CC#N)(n2nc(Nc3ccccc3)c3c(=O)[nH]ccc32)[C@H](F)C1 [Example 5-19, tert-butyl (3R,4R)-4-(cyanomethyl)-3-fluoro-4-[4-oxo-3-(phenyl-amino)-4,5-dihydro-1H-pyrazolo[4,3-c]pyridin-1-yl]piperidine-1-carboxylate]
2.01 | 2.01 | Cc1cc(Nc2nn(C3(CC#N)CCN(c4cc(C(F)(F)F)ccn4)CC3)c3cc[nH]c(=O)c23)ccc1C(=O)N1CCC(F)(F)CC1 [Example 16-4, 2-(4-(3-(4-(4,4-difluoropiperidine-1-carbonyl)-3-methylphenylamino)-4-oxo-4,5-dihydropyrazolo[4,3-c]pyridin-1-yl)-1-(4-(trifluoromethyl)pyridin-2-yl)piperidin-4-yl)acetonitrile]
0.06 | 0.43 | CC(C)(C)OC(=O)[C@@H]1CC[C@@](CC#N)(n2nc(Nc3ccc(S(C)(=O)=O)cc3)c3c(=O)[nH]ccc32)CO1 [Example 5-39, (2S,5S)-tert-butyl 5-(cyanomethyl)-5-(3-((4-(methylsulfonyl)phenyl)amino)-4-oxo-4,5-dihydro-1H-pyrazolo[4,3-c]pyridin-1-yl)tetrahydro-2H-pyran-2-carboxylate]
0.24 | 1.63 | COCC(=O)N1CCC(CC#N)(n2nc(Nc3ccc(S(=O)(=O)N(C)C)cc3)c3c(=O)[nH]ccc32)CC1 [Example 9-3, 4-({1-[4-(cyanomethyl)-1-(methoxyacetyl)piperidin-4-yl]-4-oxo-4,5-dihydro-1H-pyrazolo[4,3-c]pyridin-3-yl}amino)-N,N-dimethylbenzenesulfonamide]
0.18 | 0.43 | COC(=O)N1CCC(CC#N)(n2nc(Nc3ccc(C(C)(O)C(F)(F)F)cc3)c3c(=O)[nH]ccc32)CC1 (single isomer, unassigned) [Example 5-141, (R or S)-methyl 4-(cyanomethyl)-4-(4-oxo-3-((4-(1,1,1-trifluoro-2-hydroxypropan-2-yl)phenyl)amino)-4,5-dihydro-1H-pyrazolo[4,3-c]pyridin-1-yl)piperidine-1-carboxylate]
0.17 | 0.3 | CC(C)C(C)(C)S(=O)(=O)c1ccc(Nc2nn([C@]3(CC#N)CCCOC3)c3cc[nH]c(=O)c23)cc1 [Example 5-192, {(3S)-3-[4-oxo-3-({4-[(1,1,2-trimethylpropyl)sulfonyl]phenyl}amino)-4,5-dihydro-1H-pyrazolo[4,3-c]pyridin-1-yl]tetrahydro-2H-pyran-3-yl}acetonitrile]
0.09 | 0.1 | Cc1cc(Nc2nn([C@@]3(CC#N)CCCC[C@H]3F)c3cc[nH]c(=O)c23)ccc1C(=O)N1CCOCC1 [Example 5-151, 2-((1R,2R)-2-fluoro-1-(3-((3-methyl-4-(morpholine-4-carbonyl)phenyl)amino)-4-oxo-4,5-dihydro-1H-pyrazolo[4,3-c]pyridin-1-yl)cyclohexyl)acetonitrile]
2.98 | 19.8 | N#CC[C@]1(n2nc(Nc3ccc(Cl)cc3)c3c(=O)[nH]ccc32)CC[C@@H](N2CC(F)C2)CC1 [Example 18-7, Cis 2-(1-(3-((4-chlorophenyl)amino)-4-oxo-4,5-dihydro-1H-pyrazolo[4,3-c]pyridin-1-yl)-4-(3-fluoroazetidin-1-yl)cyclohexyl)acetonitrile]
0.14 | 1.15 | CN(C)S(=O)(=O)c1ccc(Nc2nn(C3(CC#N)CCN(C(=O)CCC4CC4)CC3)c3cc[nH]c(=O)c23)cc1 [Example 9-11, 4-({1-[4-(cyanomethyl)-1-(3-cyclopropylpropanoyl)piperidin-4-yl]-4-oxo-4,5-dihydro-1H-pyrazolo[4,3-c]pyridin-3-yl}amino)-N,N-dimethylbenzenesulfonamide]
0.21 | 0.38 | CC(C)(C)NC(c1ccc(Nc2nn([C@]3(CC#N)CCCOC3)c3cc[nH]c(=O)c23)cc1)C(F)(F)F (single isomer, unassigned) [Example 5-190, {(3S)-3-[3-({4-[(1S or 1R)-1-(tert-butylamino)-2,2,2-trifluoroethyl]phenyl}amino)-4-oxo-4,5-dihydro-1H-pyrazolo [4,3-c]pyridin-1-yl]tetrahydro-2H-pyran-3-yl}acetonitrile]
0.07 | 0.07 | CCNC(c1ccc(Nc2nn([C@@]3(CC#N)CCCC[C@H]3F)c3cc[nH]c(=O)c23)cc1)C(F)(F)F (single isomer, unassigned) [Example 5-173, {(1R,2R)-1-[3-({4-[(1R or 1S)-1-(ethylamino)-2,2,2-trifluoroethyl]phenyl}amino)-4-oxo-4,5-dihydro-1H-pyrazolo [4,3-c]pyridin-1-yl]-2-fluorocyclohexyl} acetonitrile]
6.33 | 102 | N#CC[C@]1(n2nc(Nc3ccc(C(F)(F)F)cc3)c3c(=O)[nH]ccc32)CC[C@H](Nc2ccccc2)CC1 [Example 18-4, Trans 2-(1-(4-oxo-3-((4-(trifluoromethyl)phenyl)amino)-4,5-dihydro-1H-pyrazolo[4,3-c]pyridin-1-yl)-4-(phenylamino)cyclohexyl)acetonitrile]
0.65 | 0.91 | CC(C)(C)OC(=O)N1CCC(CC#N)(n2nc(Nc3ccc(S(=O)(=O)NCC4CC4)c(F)c3)c3c(=O)[nH]ccc32)CC1 [Example 5-296, tert-butyl 4-(cyanomethyl)-4-(3-((4-(N-(cyclopropylmethyl)sulfamoyl)-3-fluorophenyl)amino)-4-oxo-4,5-dihydro-1H-pyrazolo[4,3-c]pyridin-1-yl)piperidine-1-carboxylate]
0.53 | 2.84 | CN(C)S(=O)(=O)c1ccc(Nc2nn(C3(CC#N)CCN(CCCc4ccccc4)CC3)c3cc[nH]c(=O)c23)cc1 [Example 8-15, 4-({1-[4-(cyanomethyl)-1-(3-phenylpropyl)piperidin-4-yl]-4-oxo-4,5-dihydro-1H-pyrazolo[4,3-c]pyridin-3-yl}amino)-N,N-dimethylbenzenesulfonamide]
120 | 1100 | N#CC[C@]1(n2nc(Nc3ccc(OC(F)(F)F)cc3)c3c(=O)[nH]ccc32)CC[C@@H](Nc2ccccc2)CC1 [Example 18-17, Cis 2-(1-(4-oxo-3-((4-(trifluoromethoxy)phenyl)amino)-4,5-dihydro-1H-pyrazolo[4,3-c]pyridin-1-yl)-4-(phenylamino)cyclohexyl)acetonitrile]
0.05 | 0.09 | N#CC[C@]1(n2nc(Nc3ccc(C(N)C(F)(F)F)cc3)c3c(=O)[nH]ccc32)CCCC[C@H]1F (single isomer, unassigned) [Example 5-176, {(1R,2R)-1-[3-({4-[(1R or 1S)-1-amino-2,2,2-trifluoroethyl]phenyl}amino)-4-oxo-4,5-dihydro-1H-pyrazolo [4,3-c]pyridin-1-yl]-2-fluorocyclohexyl} acetonitrile]
0.23 | 0.46 | CN(C)S(=O)(=O)c1ccc(Nc2nn(C3(CC#N)CCCC3)c3cc[nH]c(=O)c23)cc1 [Example 5-123]
0.19 | 0.86 | CN(C)S(=O)(=O)c1ccc(Nc2nn(C3(CC#N)CCN(C(=O)Oc4ccccc4)CC3)c3cc[nH]c(=O)c23)cc1 [Example 10-2, phenyl 4-(cyanomethyl)-4-(3-((4-(N,N-dimethylsulfamoyl)phenyl)amino)-4-oxo-4,5-dihydro-1H-pyrazolo[4,3-c]pyridin-1-yl)piperidine-1-carboxylate]
1.15 | 3.82 | N#CCC1(n2nc(Nc3ccc([C@H](O)C(F)(F)F)cc3)c3c(=O)[nH]ccc32)CCN(c2cc(C(F)(F)F)ccn2)CC1 (single isomer, unassigned) [Example 16-3, (R or S)-2-(4-(4-Oxo-3-(4-(2,2,2-trifluoro-1-hydroxyethyl)phenylamino)-4,5-dihydropyrazolo[4,3-c]pyridin-1-yl)-1-(4-(trifluoromethyl)pyridin-2-yl)piperidin-4-yl)acetonitrile]
0.22 | 2.81 | N#CC[C@@]1(n2nc(Nc3ccccc3)c3c(=O)[nH]ccc32)CCCOC1 [Example 5-27, (S)-2-(3-(4-oxo-3-(phenylamino)-4,5-dihydro-1H-pyrazolo[4,3-c]pyridin-1-yl)tetrahydro-2H-pyran-3-yl)acetonitrile]
